Laboratory results published in publication PMC10221074, “Functional Profiling of the A-Family of Venom Peptides from the Wolf Spider Lycosa shansia” (Toxins, 2023).

Tests used:
[1] = system: B/Malaysia/2506/2004 (B-Mal); type: cell-based, influenza virus
A/Hamburg/05/2009 (H1N1) = type: cell-based, influenza virus
A/Hessen/1/2003 (H3N2) = type: cell-based, influenza virus
G. mellonella larvae = test: Insecticidal activity by injection into larvae; type: in vivo, Galleria mellonella; conditions: 50 ng peptide injected, 3 cohorts of 10 larvae, survival monitored for 5 days
Description: Insecticidal activity was determined using fourth and fifth instar G. mellonella larvae (L4/L5) obtained from Fauna Topics Zoobedarf Zucht und Handels GmbH (Marbach am Neckar, Germany). Because spider venom is injected via chelicerae, we opted for an injection-based assay to reflect the natural process of envenomation as described earlier. The peptides were dissolved in a 1:1 mixture of DMSO and water to a final concentration of 10 mmol/L. We injected 50 ng of each peptide into the pseudopodium using Omnican-F, 0.30 × 12 mm/G 30 × 1/2”, a 1 mL syringe adjusted to a WPI manual microsyringe injector setup. Injections with water, DMSO/water (1:1) and ethanol (90%) were used as controls, alongside untreated specimens. Insecticidal activity screenings were performed in cohorts of 10 larvae with 3 replicates (30 specimens per treatment or control). […] Survival was monitored every 24 h for 5 days. Mortality was calculated based on the ratio of dead to injected specimens.

[2] = system: panel of seven bacterial strains; test: Antibacterial growth assay (OD600), statements on the whole panel; type: cell-based; conditions: growth after 48 h
[3] = system: Pseudomonas aeruginosa DSM 1117; test: Antibacterial growth assay (OD600); conditions: OD600, medium = 100, MH II broth, 37 °C, peptide 200 µM mixed 50 µL + 50 µL with bacteria, Figure 7: 48 h; for Bacterial growth relative to medium, P. aeruginosa (1117), replicate 1: replicate column 1; for Bacterial growth relative to medium, P. aeruginosa (1117), replicate 2: replicate column 2; for Bacterial growth relative to medium, P. aeruginosa (1117), replicate 3: replicate column 3
Description: (§1) Cryo-conserved cultures of selected bacterial strains (Table 4) were transferred to Tryptic Soy Agar (TSA) plates (Carl Roth) with a sterile inoculation loop, sealed with Parafilm (BEMIS, Neenah, WI, USA), and incubated for 1–2 days at 37 °C depending on growth. Single colonies were picked and transferred into 2–3 mL of the Mueller–Hinton II (MH II) broth (BD, Heidelberg, Germany). The bacteria were cultivated overnight, subcultured on fresh medium and grown for 3–4 h before testing at 37 °C, with shaking at 180 rpm. We measured the optical density at 600 nm (OD600) of 1 mL of the bacterial suspensions in polystyrene cuvettes (SARSTED, Nümbrecht, Germany) using an Ultrospec 10 spectrophotometer (Biochrome, Cambridge, UK). We then diluted them with the MH II medium to the preferred OD600 (Table 2). The peptides were dissolved in DMSO to generate 10 mmol/L stocks and diluted with the MH II medium to 200 µM before the assay. We used 10 µg/mL (~40 µg/mL for S. epidermidis) gentamicin and colistin (Sigma-Aldrich, Taufkirchen, Germany), DMSO and the medium only as controls. The bacteria were transferred to 96-multiwell plates with a final volume of 100 µL per well (50 µL bacterial suspension, and 50 µL test peptide). The OD600 was measured at 0, 24 and 48 h using a BioTek Eon microplate reader followed by analysis with Gen5 v2.09.

[4] = system: Pseudomonas aeruginosa DSM 50071; test: Antibacterial growth assay (OD600); conditions: OD600, medium = 100, MH II broth, 37 °C, peptide 200 µM mixed 50 µL + 50 µL with bacteria, Figure 7: 48 h; for Bacterial growth relative to medium, P. aeruginosa (50071), replicate 1: replicate column 1; for Bacterial growth relative to medium, P. aeruginosa (50071), replicate 2: replicate column 2; for Bacterial growth relative to medium, P. aeruginosa (50071), replicate 3: replicate column 3
[5] = system: Micrococcus luteus DSM 20030; test: Antibacterial growth assay (OD600); conditions: for Antibacterial activity (in words): M. luteus DSM 20030, growth after 48 h; for Bacterial growth relative to medium, M. luteus, replicate 1 / Bacterial growth relative to medium, M. luteus, replicate 2 / Bacterial growth relative to medium, M. luteus, replicate 3: OD600, medium = 100, MH II broth, 37 °C, peptide 200 µM mixed 50 µL + 50 µL with bacteria, Figure 7: 48 h; for Bacterial growth relative to medium, M. luteus, replicate 1: replicate column 1; for Bacterial growth relative to medium, M. luteus, replicate 2: replicate column 2; for Bacterial growth relative to medium, M. luteus, replicate 3: replicate column 3
[6] = system: Staphylococcus aureus DSM 2569; test: Antibacterial growth assay (OD600); conditions: for Bacterial growth relative to medium, S. aureus, replicate 1 / Bacterial growth relative to medium, S. aureus, replicate 2 / Bacterial growth relative to medium, S. aureus, replicate 3: OD600, medium = 100, MH II broth, 37 °C, peptide 200 µM mixed 50 µL + 50 µL with bacteria, Figure 7: 48 h; for Bacterial growth relative to medium, S. aureus, replicate 1: replicate column 1; for Bacterial growth relative to medium, S. aureus, replicate 2: replicate column 2; for Bacterial growth relative to medium, S. aureus, replicate 3: replicate column 3
Description: as §1

[7] = system: Escherichia coli BL21(DE3); test: Antibacterial growth assay (OD600); conditions: OD600, medium = 100, MH II broth, 37 °C, peptide 200 µM mixed 50 µL + 50 µL with bacteria, Figure 7: 48 h; for Bacterial growth relative to medium, E. coli, replicate 1: replicate column 1; for Bacterial growth relative to medium, E. coli, replicate 2: replicate column 2; for Bacterial growth relative to medium, E. coli, replicate 3: replicate column 3
[8] = system: Listeria monocytogenes DSM 20600; test: Antibacterial growth assay (OD600); conditions: OD600, medium = 100, MH II broth, 37 °C, peptide 200 µM mixed 50 µL + 50 µL with bacteria, Figure 7: 48 h; for Bacterial growth relative to medium, L. monocytogenes, replicate 1: replicate column 1; for Bacterial growth relative to medium, L. monocytogenes, replicate 2: replicate column 2; for Bacterial growth relative to medium, L. monocytogenes, replicate 3: replicate column 3
[9] = system: Staphylococcus epidermidis DSM 28319; test: Antibacterial growth assay (OD600); conditions: for Bacterial growth relative to medium, S. epidermidis, replicate 1 / Bacterial growth relative to medium, S. epidermidis, replicate 2 / Bacterial growth relative to medium, S. epidermidis, replicate 3: OD600, medium = 100, MH II broth, 37 °C, peptide 200 µM mixed 50 µL + 50 µL with bacteria, Figure 7: 48 h; for Bacterial growth relative to medium, S. epidermidis, replicate 1: replicate column 1; for Bacterial growth relative to medium, S. epidermidis, replicate 2: replicate column 2; for Bacterial growth relative to medium, S. epidermidis, replicate 3: replicate column 3

Row | Sequence | Viability of infected cells relative to aprotinin, Replicate 1 [1] | Viability of infected cells relative to aprotinin, Replicate 2 [1] | Viability of infected cells relative to aprotinin, Replicate 3 [1] | Viability of infected cells relative to aprotinin, Replicate 1 (A/Hamburg/05/2009 (H1N1)) | Viability of infected cells relative to aprotinin, Replicate 2 (A/Hamburg/05/2009 (H1N1)) | Viability of infected cells relative to aprotinin, Replicate 3 (A/Hamburg/05/2009 (H1N1)) | Viability of infected cells relative to aprotinin, Replicate 1 (A/Hessen/1/2003 (H3N2)) | Viability of infected cells relative to aprotinin, Replicate 2 (A/Hessen/1/2003 (H3N2)) | Viability of infected cells relative to aprotinin, Replicate 3 (A/Hessen/1/2003 (H3N2)) | Insecticidal effect on larvae (in words) (G. mellonella larvae) | Bacterial growth relative to medium, P. aeruginosa (1117), replicate 1 [3] | Bacterial growth relative to medium, P. aeruginosa (1117), replicate 2 [3] | Bacterial growth relative to medium, P. aeruginosa (1117), replicate 3 [3] | Bacterial growth relative to medium, P. aeruginosa (50071), replicate 1 [4] | Bacterial growth relative to medium, P. aeruginosa (50071), replicate 2 [4] | Bacterial growth relative to medium, P. aeruginosa (50071), replicate 3 [4] | Bacterial growth relative to medium, M. luteus, replicate 1 [5] | Bacterial growth relative to medium, M. luteus, replicate 2 [5] | Bacterial growth relative to medium, M. luteus, replicate 3 [5] | Bacterial growth relative to medium, S. aureus, replicate 1 [6] | also measured
1 | DVVKSKVGQT [LS-AMP-A20] | 0.07308 | 0.07936 | 0.06088 | 0.03404 | 0.03606 | 0.06978 | 0.06093 | 0.1556 | 0.1529 | Individual dead insects | 78.7161 | 66.133 | 53.5452 | 100.814 | 110.766 | 86.151 | 84.9437 | 89.1892 | 58.8713 | 65.5327 | Viability of infected cells relative to aprotinin, Replicate 4 (A/Hessen/1/2003 (H3N2); […], replicate 4 (additional internal control)): 0.1478; Antibacterial activity over the panel (in words) [2]: marginal effects against several bacteria; Antibacterial activity (in words) [5]: strongest effect; Bacterial growth relative to medium, S. aureus, replicate 2 [6]: 71.5501; Bacterial growth relative to medium, S. aureus, replicate 3 [6]: 85.4097; Bacterial growth relative to medium, E. coli, replicate 1 [7]: 95.2629; Bacterial growth relative to medium, E. coli, replicate 2 [7]: 75.2606; Bacterial growth relative to medium, E. coli, replicate 3 [7]: 50.6769; Bacterial growth relative to medium, L. monocytogenes, replicate 1 [8]: 113.144; Bacterial growth relative to medium, L. monocytogenes, replicate 2 [8]: 85.2342; Bacterial growth relative to medium, L. monocytogenes, replicate 3 [8]: 40.8896; Bacterial growth relative to medium, S. epidermidis, replicate 1 [9]: 65.0524; Bacterial growth relative to medium, S. epidermidis, replicate 2 [9]: 56.0414; Bacterial growth relative to medium, S. epidermidis, replicate 3 [9]: 87.4721
2 | GSLLGLLDVVKSKVGQTGLL [LS-AMP-A19] | 0.02926 | 0.02406 | 0.04584 | 0.03506 | 0.03971 | 0.04612 | 0.07115 | 0.1267 | 0.119 | Individual dead insects | 72.8823 | 76.8187 | 66.0758 | 103.493 | 107.483 | 85.194 | 38.8889 | 63.626 | 16.4993 | 70.8601 | Antibacterial activity over the panel (in words) [2]: largely inactive; Antibacterial activity (in words) [5]: strongly suppressed the growth; Bacterial growth relative to medium, S. aureus, replicate 2 [6]: 71.4846; Bacterial growth relative to medium, S. aureus, replicate 3 [6]: 83.7635; Bacterial growth relative to medium, E. coli, replicate 1 [7]: 95.9562; Bacterial growth relative to medium, E. coli, replicate 2 [7]: 82.2712; Bacterial growth relative to medium, E. coli, replicate 3 [7]: 94.9872; Bacterial growth relative to medium, L. monocytogenes, replicate 1 [8]: 151.42; Bacterial growth relative to medium, L. monocytogenes, replicate 2 [8]: 105.659; Bacterial growth relative to medium, L. monocytogenes, replicate 3 [8]: 60.4017; Bacterial growth relative to medium, S. epidermidis, replicate 1 [9]: 91.5432; Bacterial growth relative to medium, S. epidermidis, replicate 2 [9]: 106.521; Bacterial growth relative to medium, S. epidermidis, replicate 3 [9]: 92.445
3 | SLLGLLDVVKSKIGQTGLL [LS-AMP-A13] | 0.08268 | 0.06182 | 0.0661 | 0.06606 | 0.03634 | 0.07331 | 0.1762 | 0.09602 | 0.1319 | Individual dead insects | 81.1135 | 69.8921 | 76.1614 | 102.39 | 115.883 | 93.6736 | 108.132 | 162.387 | 79.7227 | 71.9833 | Bacterial growth relative to medium, S. aureus, replicate 2 [6]: 81.2949; Bacterial growth relative to medium, S. aureus, replicate 3 [6]: 106.322; Antibacterial activity (in words) ([6]; S. aureus DSM 2569, growth after 48 h): limited activity; Bacterial growth relative to medium, E. coli, replicate 1 [7]: 109.532; Bacterial growth relative to medium, E. coli, replicate 2 [7]: 109.096; Bacterial growth relative to medium, E. coli, replicate 3 [7]: 112.001; Bacterial growth relative to medium, L. monocytogenes, replicate 1 [8]: 131.861; Bacterial growth relative to medium, L. monocytogenes, replicate 2 [8]: 134.66; Bacterial growth relative to medium, L. monocytogenes, replicate 3 [8]: 121.808; Bacterial growth relative to medium, S. epidermidis, replicate 1 [9]: 109.035; Bacterial growth relative to medium, S. epidermidis, replicate 2 [9]: 130.725; Bacterial growth relative to medium, S. epidermidis, replicate 3 [9]: 108.734; Antibacterial activity (in words) ([9]; S. epidermidis DSM 28319, growth after 48 h): limited activity
